Here are results for one compound from publication PMC6694155, “PTPσ inhibitors promote hematopoietic stem cell regeneration” (Nature Communications, 2019).

The target of assay [1] is T1, LMPTP-B (Low Molecular Weight Protein Tyrosine phosphatase B) (Homo sapiens, UniProt P24666).
T1 construct: purchased Eurofins Pharma Discovery Services UK
The assay can be described thus: PhosphataseProfiler screen: LMPTP-B. The class given is biochemical. The following applies: replicates. The procedure:
Compound DJ001 was evaluated in a PhosphataseProfiler™ screen at 10 μM and 1 μM (2.7 μg/mL and 0.27 μg/mL) concentrations at Eurofins Pharma Discovery Services UK (Study number UK022-0004033) against a panel of 21 Phosphatases. In each experiment, the respective reference antagonist/agonist was tested directly with DJ001 and the data were compared with historical values determined at Eurofins. DJ001 compound inhibition was calculated as percentage inhibition of the enzymatic activity compared with control.

For assay [2], the system named is BM KSL cells. In words: CFC assay, 3 day culture of non-irradiated BM KSL cells. In kind it is cell-based, mouse. The note with it: for Supplementary Figure 3b: BFU-E / Supplementary Figure 3b: CFU-GEMM / Supplementary Figure 3b: CFU-GM: non-irradiated BM KSL cells, replicates. Here is the method:
CFC assays (colony-forming unit-granulocyte monocyte), burst-forming unit-erythroid, and CFU-GEMM were performed using MethoCult GF M3434 (Stemcell Technologies)[6]. For all in vitro assays, BM CD34^−KSL cells, KSL cells, and Lin^− cells were cultured in TSF media (IMDM, 10% FBS, 1% pen-strep, 20 ng/mL recombinant mouse TPO, 125 ng/mL recombinant mouse SCF, 50 ng/mL recombinant mouse Flt3 ligand). Recombinant mouse SCF, Flt3 ligand, and TPO were purchased from R&D Systems. For competitive repopulation assays, BM cells were isolated from donor 10–12-week-old female CD45.2^+ mice. Recipient 10-week-old female CD45.1^+ B6.SJL mice were irradiated with 950 cGy TBI using a Cs137 irradiator and donor BM cells were administered via tail vein injection along with a competing dose of 1 × 10^5 non-irradiated host BM cells. Multilineage donor hematopoietic cell engraftment was measured in the PB by flow cytometry.

Assay [3] has as its system DsRed+ BM sca-1+lin− cells in irradiated C57BL/6 mice. The assay can be described thus: Homing study. The class given is in vivo, mouse. Here is the method: Sorted BM sca-1^+lin^− cells (100,000) from DsRed^+ mice were transplanted into lethally irradiated (950 cGy) recipient C57BL/6 mice followed by subcutaneous treatment of 5 mg/kg DJ001 or vehicle × 1 dose. At 18 h post transplantation, BM cells were collected from the recipient mice and were analyzed for percentages of DsRed^+ cells in the BM[17].

The subject of assay [4] is human CD34+CD38− cells. In words: Annexin V/7AAD apoptosis assay of irradiated human BM CD34+ cells. In kind it is cell-based. The procedure: Eight- to ten-week-old female C57BL/6 mice were irradiated with 500 cGy TBI followed by subcutaneous injections of 5 mg/kg DJ001 or vehicle, or 5 mg/kg DJ001 plus 40 mg/kg EHT1864. Twenty four hours after irradiation, mice were killed to collect BM cells for Annexin V apoptosis analysis. BM cells were stained with APC-Cy7-conjugated anti-mouse Sca1 (BD Biosciences, #560654, 1:100), PE-conjugated anti-ckit (BD Biosciences, #553355, 1:100), and V450 lineage cocktail (BD Biosciences, #561301, 1:10) antibodies for 30 min at 4 °C. Cells were then resuspended in 1× Annexin V binding buffer and then stained with FITC-conjugated anti-Annexin V antibody (BD Biosciences, #556547,1:50) and 7AAD antibody (BD Biosciences, #559925, 1:40)[68]. For in vitro human BM cell apoptosis assays, isolated human BM CD34^+ cells were plated into 96-well plates and then irradiated with 300 cGy. Immediately after irradiation, cells were treated with 5 μg/mL DJ001 or vehicle for 24 h and then collected for Annexin V cell apoptosis analysis. For cell cycle analysis, BM KSL cells were irradiated at 300 cGy and then treated with 1 μg/mL DJ001 or vehicle for 36 h. Subsequently, cells were resuspended in 200 μL of PBS, fixed with 1 mL of ice-cold fixation solution (0.25% Saponin, 2.5% PFA, 2% fetal calf serum (FCS) in PBS), and incubated for 30 min on ice. Cells were washed in Saponin buffer (0.25% Saponin, 2% FCS in PBS) and resuspended in 200 μL of Saponin buffer containing 20 μL of FITC-conjugated anti-Ki67 antibody (BD Biosciences, #556026, 1:10) and 1 μL of RNase (Qiagen, #19101, 100 mg/mL). After 30 min of incubation, cells were washed in Saponin buffer and resuspended for flow analysis in 200 μL of Saponin buffer containing 5 μL 7AAD (BD Biosciences, #559925, 1:40).

Setting [5] is: irradiated human BM CD34+ cells, replicates.

Values joined by “and” are separate entries in the source; they are usually repeats but may differ in a detail not shown here. Identical values can stand only once.

T1 sequence (P24666 1-158 isoform P24666-2, species assumed): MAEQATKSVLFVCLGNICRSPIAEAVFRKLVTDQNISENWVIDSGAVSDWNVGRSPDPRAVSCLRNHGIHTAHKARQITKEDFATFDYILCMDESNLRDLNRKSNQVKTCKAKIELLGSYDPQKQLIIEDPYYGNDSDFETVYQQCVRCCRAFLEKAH

As for `O=C(/C=C\Nc1cccc([N+](=O)[O-])c1)c1ccccc1` [DJ001, (Z)-3-((3-nitrophenyl)amino)-1-phenylprop-2-en-1-one], the “Supplementary Figure 1: LMPTP-B activity” value in assay [1] (0.27 g/mL DJ001) was 96 and 90 and 99; in assay [1] (2.7 g/mL DJ001), 99 and 100 and 91. Further, the “Supplementary Figure 3b: BFU-E” value in assay [2] (10 ng/mL) was 0 (4×) and 1 and 2; in assay [2] (100 ng/mL) it was 1 (3×) and 3 and 2; in assay [2] (1000 ng/mL), 3 and 2 (3×) and 1; in assay [2] (5 µg/mL) it was 2 and 4 and 1 (3×) and 0; in assay [2] (10 µg/mL), 3 (2×) and 2 (2×) and 1 (2×). The “Supplementary Figure 3b: CFU-GEMM” value in assay [2] (10 ng/mL) is 2 and 4 (2×) and 7 (2×) and 3; in assay [2] (100 ng/mL), 8 (2×) and 7 and 6 and 5; in assay [2] (1000 ng/mL) it was 6 (3×) and 8 and 9; in assay [2] (10 µg/mL), 3 (3×) and 2 (2×) and 1; in assay [2], 3 (4×) and 6 and 4. The “Supplementary Figure 3b: CFU-GM” value was 21 and 22 and 19 and 15 (2×) and 18 in assay [2] (10 ng/mL); 23 and 20 and 24 (2×) and 21 in assay [2] (100 ng/mL); 27 and 30 and 28 (2×) and 25 in assay [2] (1000 ng/mL); 14 (2×) and 17 and 16 and 15 and 12 in assay [2] (10 µg/mL); 22 and 21 and 23 and 20 and 19 and 18 in assay [2]. In assay [2] (10 – 100 ng/ml DJ001), the “number of BM CFCs in 3 day culture of BM KSL cells” value is listed as “significantly increased the number of BM CFCs”. Besides, the “numbers of CFCs vs control” value in assay [2] (3 day culture of non-irradiated BM KSL cells) is “significantly increased the numbers of colony forming cells (CFCs)”. In assay [3] (18 h, irradiated C57BL/6 mice), the “homing of transplanted BM sca-1+lin− cells” value is on record as “no effect on homing”. In assay [3] (18 hours, 5 mg/kg DJ001 subcutaneously, 5 mg/kg), the “percentage of donor DsRed+ cells in the BM, per mouse (Supplementary Figure 8b)” value is 0.19% and 0.183% and 0.207%. Besides, in assay [4] (24 h after 300 cGy), the “radiation-induced apoptosis of human CD34+CD38− cells” value is on record as “decreased radiation-induced apoptosis”. In assay [4] (setting [5]), the “Figure 5c (left panel): Annexin V/7AAD assay” value is 85.79 and 85.23 and 84.4 and 88.36 and 87.91 and 86.9 and 86.4 and 88.8 and 87.8 and 88. The “Figure 5c (right panel): Annexin V/7AAD assay” value in assay [4] (setting [5]) was 10.98 and 10.1 and 10.94 and 7.63 and 8.04 and 12.5 and 13.3 and 11 and 12.1 and 11.7.
